Assay results reported in patent US10098861B1 (SyneuRx International (Taiwan) Corp., priority 2017, dated 2018).

Conditions: 500 mg, >90% RH, ambient temperature, 5 days

O=C([O-])c1ccccc1.[Na+] [sodium benzoate]
change in XRPD pattern: significant changes
